Laboratory results published in patent EP0363224A1, “Treatment of periodontal disease” (BLOCK DRUG COMPANY INC., priority 1988, dated 1990).

Legend:
cyclooxygenase = assay: inhibition of cyclooxygenase conversion of radiolabeled arachidonic acid into prostaglandins in homogenate of inflamed gingival tissue; type: biochemical, humans; conditions: comparison of IC₅₀ values
Protocol: Inflamed gingival tissues from the mouths of humans suffering from periodontal disease were used fresh or stored in liquid nitrogen until used. Tis­sues were pooled, homogenized in 0.2 M TRIS buffer, and centrifuged. Radiolabeled arachidonic acid (¹⁴C) was added to the centrifrugate into which various in­hibiting agents under study had been incorporated into separate aliquots, at various molar levels (log range of 10⁻³ to 10⁻⁹M). The reaction between arachidonic acid and test materials was carried out for 2 hours at 37°C.
Prostaglandins in the biological reaction mixtures were extracted and quantitatively determined by high performance liquid chromatography.

[1] = system: naturally occurring periodontal disease; conditions: systemic doses, 12-month treatment, compared to untreated or periodontal surgery control groups; cited from earlier work
alveolar bone resorption = conditions: long-term therapy, compared to matched undosed control group; cited from earlier work

In the case of `CC(C(=O)O)c1cccc(C(=O)c2ccccc2)c1` (stereo not shown) [2-methyl (3-benzoylphenyl) propanoic acid], the “effectiveness compared with other test materials” value (cyclooxygenase) is reported as “slightly more effective than alpha tocopherol”.
For `CC(C(=O)O)c1ccc(-c2ccccc2)c(F)c1` (stereo not shown) [Flurbiprofen], the alveolar bone loss [1] is listed as “significant reduction in alveolar bone loss”.
For `COc1ccc2c(c1)c(CC(=O)O)c(C)n2C(=O)c1ccc(Cl)cc1` [Indomethacin], the “rate of alveolar bone resorption” value (alveolar bone resorption) is listed as “lower rate of alveolar bone resorption”.
In the case of `CC(=O)Oc1ccccc1C(=O)O` [aspirin], the “rate of alveolar bone resorption” value (alveolar bone resorption) is listed as “lower rate of alveolar bone resorption”.
